Among the data in the NIST ThermoML archive (doi:10.1016/j.fluid.2015.04.014) are Normal melting temperature values, retold here.

Numbers after ± are expanded uncertainties.

The conditions of this data set: Crystal; visual observation.

As to `CC1(C)[C@@H]2CC[C@@]1(CS(=O)(=O)O)C(=O)C2` [(1S)-(+)-10-camphorsulfonic acid], the Normal melting temperature stood at 198.00 ± 4 °C.
